The target in series [1] is wild-type human cardiac sodium channel, hNav1.5 (late INa) (Homo sapiens, UniProt Q14524). The series can be described thus: Late INa screening assay (QPatch whole cell patch clamp). It is filed as cell-based. In a few lines:
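Compounds tested at 1 μM final in extracellular solution against tefluthrin (10 μM)-enhanced late current. Automated patch clamp (23-25° C) on HEK293 expressing alpha subunit alone: −120 mV holding, 250 ms depolarization to −20 mV every 10 s. Read-out is percent inhibition of mean current over 225–250 ms.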

Series [2] deals with wild-type human cardiac sodium channel, hNav1.5 (peak INa) (Homo sapiens, UniProt Q14524). The series can be described thus: Peak INa screening assay (tonic and use-dependent block). The following applies: 1 μM. Type of series: cell-based. The protocol: The late sodium current (Late INa) and peak sodium current (Peak INa) assays are performed on an automated electrophysiology platform, QPatch 16× (Sophion Bioscience, Copenhagen, Denmark), which uses the whole cell patch clamp technique to measure currents through the cell membrane of up to 16 cells at a time. The assay uses an HEK293 (human embryonic kidney) cell line heterologously expressing the wild-type human cardiac sodium channel, hNav1.5, purchased from Millipore (Billerica, Mass.). No beta subunits were coexpressed with the Na channel alpha subunit. Cells are maintained with standard tissue culture procedures and stable channel expression is maintained with 400 μg/mL Geneticin in the culture medium. […] Experiments are carried out at 23-25° C. For both the Late INa and Peak INa assays, series resistance compensation is set to 100% and series resistance and whole-cell compensation are performed automatically. Currents are digitized at 25 kHz and low-pass filtered at 12 kHz and 10 kHz for the late and peak INa assays, respectively. Currents through open sodium channels are automatically recorded and stored in the Sophion Bioscience Oracle database (Sophion Bioscience, Copehagen, Denmark). Analysis is performed using QPatch Assay and database software and data are compiled in Excel. Compound stocks are routinely made by the Gilead Sample Bank in plastic vials to 10 mM in dimethyl sulfoxide (DMSO). In some cases, when compounds are not soluble in DMSO, they are made in 100% ethanol. Stocks are sonicated as necessary. […] The intracellular solution used to perfuse the inside of the cells for both the Late INa and Peak INa assays contains: 120 mM CsF, 20 mM CsCl, 5 mM EGTA, 5 mM HEPES and pH adjusted to 7.4 with CsOH. Compounds are diluted in extracellular solution to 1 μM in glass vials and then transferred to glass well plates before robotic addition to the cells. […] Compounds were also evaluated for their effect in several other assays, including their effect on Peak INa. Good separation between the concentrations of test compound to reduce late and peak INa is beneficial to enable separation of the desired effect to reduce late INa-induced electrical and mechanical dysfunction from the undesired effect to reduce peak INa, which can lead to slowing or block of conduction of electrical excitation in the heart. It is contemplated that the compounds of Formula I avoid significant block of peak INa. Since the peak INa in the cells used herein can be very large, introducing artifacts in the recording, the concentration of Na^+ in the bath can be reduced to 20 mM and a nonpermeant cation added to compensate for the Na^+ that was removed to maintain the osmolarity and ionic strength of the solution (see solution details below). Analysis of peak INa generally requires correction for rundown before determining the % block of peak current by the tested compound. […] A low stimulation frequency of 0.1 Hz was used to determine the effect of the test compound when the channel spent most of the time in the resting (closed) state and provides information about Tonic Block (TB). A higher stimulation frequency (3 Hz) was used to measure block of the channel when it spent more time in the activated and inactivated states and provided a measure of Use-Dependent Block (UDB). Use-dependent block refers to the accumulation of block with increased frequency of channel activation. Block of cardiac peak INa by compounds of this invention is increased with an increase in the frequency of stimulation from 0.1 to 1-5 Hz (frequencies encountered either in the normal heart or during tachycardia). It is therefore expected that reduction of peak INa by compounds of this invention will be greater at high heart rates, such as those during tachyarrhythmias, than at normal heart rates. […]

A short description of series [3]: Microsomal stability assay, rat. The note with it: metabolic stability, rat liver microsomes 0.5 mg/mL, substrate 3 uM. It is filed as in vitro ADME. On the procedure:
(§1) The micorsomal stability assay is generally performed as follows. Format: 15 compounds (and 1 control verapamil) in 3 different species in duplicate sets Substrate: 3 uM Protein concentration: 0.5 mg/mL (for dog, rat, and human liver microsomes) Cofactor: 1×NADPH-Regenerating system Time-points: 2, 12, 25, 45, and 65 minutes [table] Sample preparation: 25 uL at each timepoint is added to plate with 225 uL quenching solution (50% MeOH, 25% ACN, 25% H2O, and 50 nM […]). After plates are vortexed, centrifuge for 30 minutes. Microsomal solutions: take 400 uL of 20 mg/mL microsomes and add to 13,680 uL 100 mM KPO4 buffer. Using an 8-channel, add 650 uL of this solution to the designated two columns on a short plate. The order should be dog microsomes in columns 1 and 2, rat microsomes in columns 3 and 4, and human microsomes in columns 5 and 6. Keep on ice before use. Place this plate in incubator 1 on the TECAN countertop.

Series [4] in a line: Microsomal stability assay, human. The following applies: metabolic stability, human liver microsomes 0.5 mg/mL, substrate 3 uM. It is filed as in vitro ADME. The protocol: as §1
Series [5] in a line: Microsomal stability assay, dog. Type of series: in vitro ADME. The note with it: metabolic stability, dog liver microsomes 0.5 mg/mL, substrate 3 uM. On the procedure:
as §1

Where [6] appears, read: percent block of late INa, compound at 1 μM, 10 μM Tefluthrin, HEK293 hNav1.5, read-out: Late INa 1 μM.
Where [7] appears, read: tonic block of peak INa, 0.1 Hz, read-out: Peak TB 1 μM.
The mark [8] stands for this setting: use-dependent block of peak INa, 3 Hz, read-out: Peak UDB 1 μM.

The results in this text go back to patent publication US20150329558A1, “FUSED HETEROCYCLIC COMPOUNDS AS ION CHANNEL MODULATORS” (Gilead Sciences, Inc., priority 2011, published 2015).

Where two headings read alike, the source gives them in different places.

Chain of wild-type human cardiac sodium channel, hNav1.5 (late INa) (Q14524 whole entry): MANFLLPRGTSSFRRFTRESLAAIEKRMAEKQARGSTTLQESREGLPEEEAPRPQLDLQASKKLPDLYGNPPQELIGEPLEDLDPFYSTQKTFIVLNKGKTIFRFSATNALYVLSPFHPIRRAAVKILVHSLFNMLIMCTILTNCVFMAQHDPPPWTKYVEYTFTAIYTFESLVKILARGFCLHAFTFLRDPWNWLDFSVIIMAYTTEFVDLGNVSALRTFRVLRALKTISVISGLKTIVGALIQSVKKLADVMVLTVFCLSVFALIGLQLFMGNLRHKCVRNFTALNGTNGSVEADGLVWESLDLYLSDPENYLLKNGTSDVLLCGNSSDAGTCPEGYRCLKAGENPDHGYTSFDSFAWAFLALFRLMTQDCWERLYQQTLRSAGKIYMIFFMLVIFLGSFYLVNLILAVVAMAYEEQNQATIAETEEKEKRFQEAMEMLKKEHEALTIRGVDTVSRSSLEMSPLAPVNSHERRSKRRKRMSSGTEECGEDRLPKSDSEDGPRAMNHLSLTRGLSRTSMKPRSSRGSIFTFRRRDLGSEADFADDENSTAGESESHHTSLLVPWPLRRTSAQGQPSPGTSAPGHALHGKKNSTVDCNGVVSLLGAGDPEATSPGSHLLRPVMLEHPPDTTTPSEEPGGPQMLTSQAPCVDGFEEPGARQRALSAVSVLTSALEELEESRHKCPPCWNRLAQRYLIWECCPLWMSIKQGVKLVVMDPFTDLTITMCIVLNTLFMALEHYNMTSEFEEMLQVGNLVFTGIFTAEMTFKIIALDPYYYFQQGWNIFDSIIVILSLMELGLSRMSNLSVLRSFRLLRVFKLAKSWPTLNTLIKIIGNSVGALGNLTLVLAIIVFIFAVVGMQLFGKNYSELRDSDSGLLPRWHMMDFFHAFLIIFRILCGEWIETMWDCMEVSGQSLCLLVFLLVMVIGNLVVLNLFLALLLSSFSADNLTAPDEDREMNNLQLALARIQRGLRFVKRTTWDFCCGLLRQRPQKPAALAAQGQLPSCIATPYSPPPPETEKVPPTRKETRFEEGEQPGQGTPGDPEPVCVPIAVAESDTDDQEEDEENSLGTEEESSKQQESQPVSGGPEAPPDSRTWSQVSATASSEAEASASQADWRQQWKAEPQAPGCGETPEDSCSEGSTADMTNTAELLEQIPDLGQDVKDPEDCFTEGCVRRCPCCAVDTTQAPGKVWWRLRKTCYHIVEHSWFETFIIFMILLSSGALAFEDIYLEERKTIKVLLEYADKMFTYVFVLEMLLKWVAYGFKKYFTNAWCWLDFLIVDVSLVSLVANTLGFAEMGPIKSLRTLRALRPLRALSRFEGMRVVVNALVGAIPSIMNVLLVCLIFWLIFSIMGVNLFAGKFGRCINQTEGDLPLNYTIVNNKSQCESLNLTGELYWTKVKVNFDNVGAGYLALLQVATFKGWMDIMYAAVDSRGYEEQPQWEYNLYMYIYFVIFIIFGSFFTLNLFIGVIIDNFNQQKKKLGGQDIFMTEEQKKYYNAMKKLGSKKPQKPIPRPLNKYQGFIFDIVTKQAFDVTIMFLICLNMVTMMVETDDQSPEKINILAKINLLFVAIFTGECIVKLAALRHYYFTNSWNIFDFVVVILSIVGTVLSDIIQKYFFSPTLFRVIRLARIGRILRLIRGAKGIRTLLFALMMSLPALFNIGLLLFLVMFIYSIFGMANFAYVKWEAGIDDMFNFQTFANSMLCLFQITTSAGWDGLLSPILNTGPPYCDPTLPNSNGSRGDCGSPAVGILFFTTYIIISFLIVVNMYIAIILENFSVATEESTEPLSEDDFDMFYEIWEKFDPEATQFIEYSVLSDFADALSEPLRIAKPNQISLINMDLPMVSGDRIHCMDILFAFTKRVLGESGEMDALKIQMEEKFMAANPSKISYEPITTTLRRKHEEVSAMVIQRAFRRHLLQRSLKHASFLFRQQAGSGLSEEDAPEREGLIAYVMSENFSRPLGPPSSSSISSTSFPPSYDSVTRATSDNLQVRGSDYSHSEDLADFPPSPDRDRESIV
Chain of wild-type human cardiac sodium channel, hNav1.5 (peak INa) (Q14524 whole entry): as above

Regarding `O=C1c2cc(-c3ccc(OC(F)(F)F)cc3)ccc2SCN1Cc1ccccn1` [Compound X-1, 3-(pyridin-2-ylmethyl)-6-(4-(trifluoromethoxy)phenyl)-2H-benzo[e][1,3]thiazin-4(3H)-one], the results for the inhibition at 1 µM in series [1] (setting [6]), in series [2] (setting [7]) and in series [2] (setting [8]) were 47%, 14% and 22%, respectively. The compound also gave an MS Rat THalf in series [3] of 58 min. In series [4], this compound registered an MS Human THalf of 74 min. In series [5], the MS Dog THalf came out at 107 min.

Take `O=C1c2cc(-c3ccc(OC(F)(F)F)cc3)ccc2SCN1Cc1ncccn1` [Compound X-2, 3-(pyrimidin-2-ylmethyl)-6-(4-(trifluoromethoxy)phenyl)-2H-benzo[e][1,3]thiazin-4(3H)-one]: the inhibition at 1 µM in series [1] (setting [6]) turned out to be 55%; in series [2] (setting [7]), 14%; in series [2] (setting [8]), 17%. In series [3], this compound registered an MS Rat THalf of 137 min. Besides, the MS Human THalf in series [4] amounted to 142 min. For the same compound, the MS Dog THalf in series [5] worked out at 164 min.

Turning to `O=C1c2cc(-c3ccc(C(F)(F)F)cc3)ccc2SCN1Cc1ccccn1` [Compound X-3, 3-(pyridin-2-ylmethyl)-6-(4-(trifluoromethyl)phenyl)-2H-benzo[e][1,3]thiazin-4(3H)-one], the inhibition at 1 µM in series [1] (setting [6]) was found to be 67%; in series [2] (setting [7]), 31%; in series [2] (setting [8]), 35%. In series [3], this compound gave an MS Rat THalf of 45 min. In series [4], this compound yielded an MS Human THalf of 36 min. The MS Dog THalf in series [5] stood at 137 min.

On to `O=C1c2cc(-c3ccc(C(F)(F)F)cc3)ccc2SCN1Cc1ncccn1` [Compound X-4, 3-(pyrimidin-2-ylmethyl)-6-(4-(trifluoromethyl)phenyl)-2H-benzo[e][1,3]thiazin-4(3H)-one], for which the inhibition at 1 µM in series [1] (setting [6]) amounted to 52%; in series [2] (setting [7]), 27%; in series [2] (setting [8]) it was 25%. Further, the MS Rat THalf in series [3] was determined as 122 min. This compound yielded an MS Human THalf in series [4] of 103 min. In series [5], this compound gave an MS Dog THalf of 126 min.

For the compound `O=C1c2cc(-c3ccc(C(F)(F)F)cc3)ccc2SCN1Cc1ccccc1Cl` [Compound X-5, 3-(2-chlorobenzyl)-6-(4-(trifluoromethyl)phenyl)-2H-benzo[e][1,3]thiazin-4(3H)-one], the inhibition at 1 µM amounted to 57% in series [1] (setting [6]), 12% in series [2] (setting [7]) and 35% in series [2] (setting [8]). In series [3], the MS Rat THalf stood at 57 min. The compound also came in with an MS Human THalf in series [4] of 48 min. In addition, in series [5], the MS Dog THalf came out at 55 min.

On to `O=C1c2cc(-c3ccc(C(F)(F)F)cc3)ccc2SCN1Cc1ncccc1F` [Compound X-6, 3-((3-fluoropyridin-2-yl)methyl)-6-(4-(trifluoromethyl)phenyl)-2H-benzo[e][1,3]thiazin-4(3H)-one], for which the inhibition at 1 µM in series [1] (setting [6]) turned out to be 69%; in series [2] (setting [7]), 35%; in series [2] (setting [8]), 32%. Further, in series [3], the MS Rat THalf came to 46 min. Further, the MS Human THalf in series [4] was determined as 38 min. The compound further yielded an MS Dog THalf in series [5] of 120 min.

Regarding `O=C1c2cc(-c3ccc(OC(F)(F)F)cc3)ccc2SCN1Cc1ncccc1F` [Compound X-9, 3-((3-fluoropyridin-2-yl)methyl)-6-(4-(trifluoromethoxy)phenyl)-2H-benzo[e][1,3]thiazin-4(3H)-one], the inhibition at 1 µM in series [1] (setting [6]) was 67%; in series [2] (setting [7]), 39%; in series [2] (setting [8]), 31%. The same compound showed an MS Rat THalf in series [3] of 47 min. Further, the MS Human THalf in series [4] was 70 min. The compound further came in with an MS Dog THalf in series [5] of 75 min.

Turning to `O=c1c2cc(-c3ccc(OC(F)(F)F)cc3)ccc2nnn1Cc1ncc(Cl)cn1` [II-4, 3((5-chloropyrimidin-2-yl)methyl)-6-(4-(trifluoromethoxy)phenyl)benzo[d][1,2,3]triazin-4(3H)-one], the inhibition at 1 µM amounted to 41% in series [1] (setting [6]), 9% in series [2] (setting [7]) and 4% in series [2] (setting [8]). Further, the MS Rat THalf in series [3] was 135 min. In series [4], this compound displayed an MS Human THalf of 270 min. This compound gave an MS Dog THalf in series [5] of 61 min.

In the case of `O=c1c2cc(-c3ccc(OC(F)(F)F)cc3)ccc2nnn1Cc1ncccn1` [II-24, 3-(pyrimidin-2-ylmethyl)-6-(4-(trifluoromethoxy)phenyl)benzo[d][1,2,3]triazin-4(3H)-one], the inhibition at 1 µM stood at 60% in series [1] (setting [6]), 19% in series [2] (setting [7]) and 24% in series [2] (setting [8]). For the same compound, in series [3], the MS Rat THalf came out at 324 min. The compound also yielded an MS Human THalf in series [4] greater than 395 min. The MS Dog THalf in series [5] stood at 219 min.

Turning to `Cc1cc(Cn2nnc3ccc(-c4ccc(OC(F)(F)F)cc4)cc3c2=O)on1` [II-25, 3-((3-methylisoxazol-5-yl)methyl)-6-(4-(trifluoromethoxy)phenyl)benzo[d][1,2,3]triazin-4(3H)-one], the inhibition at 1 µM came to 50% in series [1] (setting [6]), 9% in series [2] (setting [7]) and 2% in series [2] (setting [8]). This compound also yielded an MS Rat THalf in series [3] of 298 min. In series [4], this compound returned an MS Human THalf of 363 min. Also, in series [5], the MS Dog THalf is 117 min.

Consider `Cc1cc(Cn2nnc3ccc(-c4ccc(OC(F)(F)F)cc4)cc3c2=O)no1` [II-26, 3-((5-methylisoxazol-3-yl)methyl)-6-(4-(trifluoromethoxy)phenyl)benzo[d][1,2,3]triazin-4(3H)-one], for which the inhibition at 1 µM in series [1] (setting [6]) came out at 47%; in series [2] (setting [7]), 14%; in series [2] (setting [8]) it was 5%. The MS Rat THalf in series [3] amounted to 80 min. In series [4], this compound gave an MS Human THalf of 382 min. This compound came in with an MS Dog THalf in series [5] of 67 min.

On to `O=C(NCc1ncccn1)N1CCc2ccc(-c3ccc(C(F)(F)F)cc3)cc2C1` [IX-89, N-(pyrimidin-2-ylmethyl)-7-(4-(trifluoromethyl)phenyl)-3,4-dihydroisoquinoline-2(1H)-carboxamide], for which, in series [1] (setting [6]), the inhibition at 1 µM was determined as 33%. In series [3], this compound yielded an MS Rat THalf of 192 min. This compound registered an MS Human THalf in series [4] of 125 min. Further, the MS Dog THalf in series [5] was found to be 177 min.

With `O=C(N1CCc2ccc(-c3ccc(C(F)(F)F)cc3)cc2C1)N1CC(O)C1` [IX-108, (3-hydroxyazetidin-1-yl)(7-(4-(trifluoromethyl)phenyl)-3,4-dihydroisoquinolin-2(1H)-yl)methanone], the inhibition at 1 µM stood at 30% in series [1] (% inhibition at 1 μM, read-out: NAv1.5*-LATE-) and 30% in series [1] (setting [6]). The compound also returned an MS Rat THalf in series [3] of 302 min. Further, in series [4], the MS Human THalf is 245 min. The compound also had an MS Dog THalf in series [5] of 370 min.
